Measured values: patent publication US6518243B1, “Desleucyl glycopeptide antibiotics and methods of making same” (Trustees of Princeton University, priority 1999, dated 2003)

How the values were obtained:
E. faceium (ATCC 49624) = assay: Zone of inhibition screen, 96 well agar array format;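 further: score 3 means fourfold and score 4 sixteenfold the reference zone size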; format: cell-based, E. faecium
Experimental: The antibacterial activity of each of the compounds against the bacterial strains E. faceium (ATCC 49624), S. epidermidis (ATCC 12228), S. aureus (ATCC 29213), E. faecalis (CL 4877) and E. faecalis (ATCC 292121) was tested. Each of the compounds was screened in a 96 will agar array format.

[1] = system: S. epidermidis (ATCC 12228); assay: as above; format: cell-based; design: scale not given here
In short: (§1)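 Each compound was tested for antibacterial activity against a shared bacterial panel, with screening carried out on agar in a 96-well array.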

E. faecalis (CL 4877) = assay: as above; format: cell-based; design: scale not given here
In short: as §1

S. aureus (ATCC 29213) = assay: as above; format: cell-based; design: scale not given here; conditions: zone of inhibition relative to 1 mg/ml stock solution of p-chlorobiphenylvancomycin
In short: as §1

E. faecium ATCC 49624 = assay: MIC determination in BHI media, OD600; format: cell-based; conditions: BHI + 0.1% casamino acids, 18 hours at 37° C., ≧90% OD600 inhibition
Experimental: (§2) Logarithmically growing cells were diluted to approximately 5×10^5 CFU/ml and subjected to test compounds solubilized and serially diluted in DMSO. […] After 18 hours at 37° C., the OD600 was determined by reading the ninety-six well microtiter plates on a microplate reader. For a given concentration, an MIC determination was made if: […]

S aureus ATCC 29213 = assay: MIC determination in BHI media, OD600; format: cell-based; conditions: BHI + 0.1% casamino acids, 18 hours at 37° C., ≧90% OD600 inhibition
Experimental: as §2

S. Aureus ATCC 33591 = assay: MIC determination in BHI media, OD600; format: cell-based; conditions: BHI + 0.1% casamino acids, 18 hours at 37° C., ≧90% OD600 inhibition
Experimental: as §2

[2] = zone of inhibition relative to 1 mg/ml stock solution of p-chlorobiphenylvancomycin
[3] = zone of inhibition relative to 1 mg/ml p-chlorobiphenylvancomycin

Structure (SMILES) | zone score, E. faecium ATCC 49624 (E. faceium (ATCC 49624); [2]) | zone score, S. epidermidis ATCC 12228 [1, 2] | zone score, E. faecalis CL 4877 (E. faecalis (CL 4877); [2]) | zone score, S. aureus ATCC 29213 (S. aureus (ATCC 29213)) | further results
CC1OC(OC2C(Oc3c4cc5cc3Oc3ccc(cc3Cl)C(O)C3NC(=O)C(NC(=O)C5NC(=O)C(CC(N)=O)NC(=O)C(NC(=O)CC(O)C[N+](C)(C)C)C(O)c5ccc(c(Cl)c5)O4)c4ccc(O)c(c4)-c4c(O)cc(O)cc4C(C(=O)O)NC3=O)OC(CO)C(O)C2O)CC(C)(NCc2ccc(-c3ccc(Cl)cc3)cc2)C1O (mixture of isomers) [Compound 151] | 2 | 2 | 2 | – | –
C[C@H]1O[C@H](O[C@H]2[C@H](Oc3c4cc5cc3Oc3ccc(cc3Cl)[C@@H](O)[C@@H](NC(=O)[C@@H](N)CCCNC(N)=O)C(=O)N[C@@H](CC(N)=O)C(=O)N[C@H]5C(=O)N[C@H]3C(=O)N[C@H](C(=O)N[C@@H](C(=O)O)c5cc(O)cc(O)c5-c5cc3ccc5O)[C@H](O)c3ccc(c(Cl)c3)O4)O[C@H](CO)[C@@H](O)[C@@H]2O)C[C@@](C)(NCc2ccc(-c3ccc(Cl)cc3)cc2)[C@H]1O [Compound 5] | 2 | – | 2 | – | –
CC1OC(OC2C(Oc3c4cc5cc3Oc3ccc(cc3Cl)C(O)C3NC(=O)C(NC(=O)C5NC(=O)C(CC(N)=O)NC(=O)C(NC(=O)C(N)Cc5cccs5)C(O)c5ccc(c(Cl)c5)O4)c4ccc(O)c(c4)-c4c(O)cc(O)cc4C(C(=O)O)NC3=O)OC(CO)C(O)C2O)CC(C)(NCc2ccc(-c3ccc(Cl)cc3)cc2)C1O (stereo not shown) [Compound 10] | 2 | – | – | 2 | –
CC1OC(OC2C(Oc3c4cc5cc3Oc3ccc(cc3Cl)C(O)C3NC(=O)C(NC(=O)C5NC(=O)C(CC(N)=O)NC(=O)C(NC(=O)Cn5cccc(N)c5=O)C(O)c5ccc(c(Cl)c5)O4)c4ccc(O)c(c4)-c4c(O)cc(O)cc4C(C(=O)O)NC3=O)OC(CO)C(O)C2O)CC(C)(NCc2ccc(-c3ccc(Cl)cc3)cc2)C1O (stereo not shown) [Compound 32] | 2 | – | 2 | 2 | –
CC1OC(OC2C(Oc3c4cc5cc3Oc3ccc(cc3Cl)C(O)C3NC(=O)C(NC(=O)C5NC(=O)C(CC(N)=O)NC(=O)C(NC(=O)CN5CCN(CCN)CC5)C(O)c5ccc(c(Cl)c5)O4)c4ccc(O)c(c4)-c4c(O)cc(O)cc4C(C(=O)O)NC3=O)OC(CO)C(O)C2O)CC(C)(NCc2ccc(-c3ccc(Cl)cc3)cc2)C1O (stereo not shown) [Compound 33] | 2 | – | 2 | 2 | –
CC(O)C(N)C(=O)NC1C(=O)NC(CC(N)=O)C(=O)NC2C(=O)NC3C(=O)NC(C(=O)NC(C(=O)O)c4cc(O)cc(O)c4-c4cc3ccc4O)C(O)c3ccc(c(Cl)c3)Oc3cc2cc(c3OC2OC(CO)C(O)C(O)C2OC2CC(C)(NCc3ccc(-c4ccc(Cl)cc4)cc3)C(O)C(C)O2)Oc2ccc(cc2Cl)C1O (stereo not shown) [Compound 43] | 2 | – | 2 | – | –
CC1OC(OC2C(Oc3c4cc5cc3Oc3ccc(cc3Cl)C(O)C3NC(=O)C(NC(=O)C5NC(=O)C(CC(N)=O)NC(=O)C(NC(=O)CCN)C(O)c5ccc(c(Cl)c5)O4)c4ccc(O)c(c4)-c4c(O)cc(O)cc4C(C(=O)O)NC3=O)OC(CO)C(O)C2O)CC(C)(NCc2ccc(-c3ccc(Cl)cc3)cc2)C1O (stereo not shown) [Compound 47] | 2 | – | 2 | – | –
CSCC(N)C(=O)NC1C(=O)NC(CC(N)=O)C(=O)NC2C(=O)NC3C(=O)NC(C(=O)NC(C(=O)O)c4cc(O)cc(O)c4-c4cc3ccc4O)C(O)c3ccc(c(Cl)c3)Oc3cc2cc(c3OC2OC(CO)C(O)C(O)C2OC2CC(C)(NCc3ccc(-c4ccc(Cl)cc4)cc3)C(O)C(C)O2)Oc2ccc(cc2Cl)C1O (stereo not shown) [Compound 50] | 2 | – | 2 | – | –
CC1OC(OC2C(Oc3c4cc5cc3Oc3ccc(cc3Cl)C(O)C3NC(=O)C(NC(=O)C5NC(=O)C(CC(N)=O)NC(=O)C(NC(=O)CNC(=O)CNC(=O)CN)C(O)c5ccc(c(Cl)c5)O4)c4ccc(O)c(c4)-c4c(O)cc(O)cc4C(C(=O)O)NC3=O)OC(CO)C(O)C2O)CC(C)(NCc2ccc(-c3ccc(Cl)cc3)cc2)C1O (stereo not shown) [Compound 67] | – | 2 | – | 2 | MIC E. faecium ATCC 49624 (E. faecium ATCC 49624): 0.78 µg/mL; MIC S. aureus ATCC 29213 (S aureus ATCC 29213): 0.78 µg/mL; MIC S. aureus ATCC 33591 (S. Aureus ATCC 33591): 0.78 µg/mL
CC1OC(OC2C(Oc3c4cc5cc3Oc3ccc(cc3Cl)C(O)C3NC(=O)C(NC(=O)C5NC(=O)C(CC(N)=O)NC(=O)C(NC(=O)C5CC(O)CN5)C(O)c5ccc(c(Cl)c5)O4)c4ccc(O)c(c4)-c4c(O)cc(O)cc4C(C(=O)O)NC3=O)OC(CO)C(O)C2O)CC(C)(NCc2ccc(-c3ccc(Cl)cc3)cc2)C1O (stereo not shown) [Compound 72] | 2 | 2 | 2 | – | –
CC(=O)NCCCCC(N)C(=O)NC1C(=O)NC(CC(N)=O)C(=O)NC2C(=O)NC3C(=O)NC(C(=O)NC(C(=O)O)c4cc(O)cc(O)c4-c4cc3ccc4O)C(O)c3ccc(c(Cl)c3)Oc3cc2cc(c3OC2OC(CO)C(O)C(O)C2OC2CC(C)(NCc3ccc(-c4ccc(Cl)cc4)cc3)C(O)C(C)O2)Oc2ccc(cc2Cl)C1O (stereo not shown) [Compound 76] | 2 | 2 | – | – | –
CC1OC(OC2C(Oc3c4cc5cc3Oc3ccc(cc3Cl)C(O)C3NC(=O)C(NC(=O)C5NC(=O)C(CC(N)=O)NC(=O)C(NC(=O)C(N)CCCC[N+](C)(C)C)C(O)c5ccc(c(Cl)c5)O4)c4ccc(O)c(c4)-c4c(O)cc(O)cc4C(C(=O)O)NC3=O)OC(CO)C(O)C2O)CC(C)(NCc2ccc(-c3ccc(Cl)cc3)cc2)C1O.[Cl-] (stereo not shown) [Compound 80] | 2 | – | – | 2 | –
CC(=O)NCSC(C)(C)C(N)C(=O)NC1C(=O)NC(CC(N)=O)C(=O)NC2C(=O)NC3C(=O)NC(C(=O)NC(C(=O)O)c4cc(O)cc(O)c4-c4cc3ccc4O)C(O)c3ccc(c(Cl)c3)Oc3cc2cc(c3OC2OC(CO)C(O)C(O)C2OC2CC(C)(NCc3ccc(-c4ccc(Cl)cc4)cc3)C(O)C(C)O2)Oc2ccc(cc2Cl)C1O (stereo not shown) [Compound 84] | 2 | 2 | – | 2 | –
CC1OC(OC2C(Oc3c4cc5cc3Oc3ccc(cc3Cl)C(O)C3NC(=O)C(NC(=O)C5NC(=O)C(CC(N)=O)NC(=O)C(NC(=O)CNC(=O)C5CCCN5)C(O)c5ccc(c(Cl)c5)O4)c4ccc(O)c(c4)-c4c(O)cc(O)cc4C(C(=O)O)NC3=O)OC(CO)C(O)C2O)CC(C)(NCc2ccc(-c3ccc(Cl)cc3)cc2)C1O (stereo not shown) [Compound 85] | 2 | 2 | 2 | 2 | –
CC1OC(OC2C(Oc3c4cc5cc3Oc3ccc(cc3Cl)C(O)C3NC(=O)C(NC(=O)C5NC(=O)C(CC(N)=O)NC(=O)C(NC(=O)C(CC[S+](C)[O-])NC(=O)OC(C)(C)C)C(O)c5ccc(c(Cl)c5)O4)c4ccc(O)c(c4)-c4c(O)cc(O)cc4C(C(=O)O)NC3=O)OC(CO)C(O)C2O)CC(C)(NCc2ccc(-c3ccc(Cl)cc3)cc2)C1O (stereo not shown) [Compound 142] | 2 | – | 2 | 2 | –
CC1OC(OC2C(Oc3c4cc5cc3Oc3ccc(cc3Cl)C(O)C3NC(=O)C(NC(=O)C5NC(=O)C(CC(N)=O)NC(=O)C(NC(=O)CC(O)C[N+](C)(C)C)C(O)c5ccc(c(Cl)c5)O4)c4ccc(O)c(c4)-c4c(O)cc(O)cc4C(C(=O)O)NC3=O)OC(CO)C(O)C2O)CC(C)(NCc2ccc(-c3ccc(Cl)cc3)cc2)C1O (stereo not shown) [Compound 149] | 2 | – | 2 | – | –
CC1OC(OC2C(Oc3c4cc5cc3Oc3ccc(cc3Cl)C(O)C3NC(=O)C(NC(=O)C5NC(=O)C(CC(N)=O)NC(=O)C(NC(=O)C(N)CCCNC(=N)N)C(O)c5ccc(c(Cl)c5)O4)c4ccc(O)c(c4)-c4c(O)cc(O)cc4C(C(=O)O)NC3=O)OC(CO)C(O)C2O)CC(C)(NCc2ccc(-c3ccc(Cl)cc3)cc2)C1O (stereo not shown) [Compound 217] | – | – | – | – | zone score, E. faecium ATCC 49624 (E. faceium (ATCC 49624); [3]): 2; zone score, E. faecalis CL 4877 (E. faecalis (CL 4877); [3]): 2
CC(N)C(=O)NC1C(=O)NC(CC(N)=O)C(=O)NC2C(=O)NC3C(=O)NC(C(=O)NC(C(=O)O)c4cc(O)cc(O)c4-c4cc3ccc4O)C(O)c3ccc(c(Cl)c3)Oc3cc2cc(c3OC2OC(CO)C(O)C(O)C2OC2CC(C)(NCc3ccc(-c4ccc(Cl)cc4)cc3)C(O)C(C)O2)Oc2ccc(cc2Cl)C1O (stereo not shown) [Compound 220] | – | – | – | – | zone score, E. faecium ATCC 49624 (E. faceium (ATCC 49624); [3]): 2
CC1OC(OC2C(Oc3c4cc5cc3Oc3ccc(cc3Cl)C(O)C3NC(=O)C(NC(=O)C5NC(=O)C(CC(N)=O)NC(=O)C(NC(=O)CCS(=O)(=O)c5ccccc5)C(O)c5ccc(c(Cl)c5)O4)c4ccc(O)c(c4)-c4c(O)cc(O)cc4C(C(=O)O)NC3=O)OC(CO)C(O)C2O)CC(C)(NCc2ccc(-c3ccc(Cl)cc3)cc2)C1O (stereo not shown) [Compound 246] | – | – | – | – | zone score, E. faecium ATCC 49624 (E. faceium (ATCC 49624); [3]): 2
CC(=O)c1ccc(C(=O)NC2C(=O)NC(CC(N)=O)C(=O)NC3C(=O)NC4C(=O)NC(C(=O)NC(C(=O)O)c5cc(O)cc(O)c5-c5cc4ccc5O)C(O)c4ccc(c(Cl)c4)Oc4cc3cc(c4OC3OC(CO)C(O)C(O)C3OC3CC(C)(NCc4ccc(-c5ccc(Cl)cc5)cc4)C(O)C(C)O3)Oc3ccc(cc3Cl)C2O)cc1 (stereo not shown) [Compound 267] | – | – | – | – | zone score, E. faecium ATCC 49624 (E. faceium (ATCC 49624); [3]): 2; zone score, S. epidermidis ATCC 12228 [1, 3]: 2
